Measurements from ChEMBL document CHEMBL3507680, “University of Dundee, Gates Library screen for HepG2 cell viability”.

Test: Human HepG2 cell viability assay in 384 well format
Type: toxicity, cell-based
Set-up: dose 125 nL, time 70.5 hour; concentration not given beside the values
Settings: HepG2 cells, read-out: Inhibition

Structure (SMILES)	cytotoxicity at 70.5 h
O=C(c1cn(CC(=O)N2CCCCC2)c2ccccc12)C1CC1	24%
Cn1cc(N2CC3(CCN(S(C)(=O)=O)C3)CC2=O)cn1 (stereo not drawn)	2.06%
CC(C)Oc1ncnc2c1CCN(Cc1cccs1)CC2	-6.72%
COCC1CN(Cc2cc(C)on2)Cc2cn(C)nc21 (stereo not drawn)	3.15%
O=C1NC(c2ccccc2)=N[C@@]12CC[C@@H]1CN(Cc3ccco3)C[C@@H]12	-5.19%
O=C(NCc1ccco1)[C@@]12CCO[C@@H]1CCN(CCN1CCCC1)C2	8.62%
Cc1cnc(N2CC3(CCN(C(=O)c4ccoc4)C3)C2)nc1	-2.31%
Cc1cccc(CN2C[C@@H]3CN(C(=O)NC(C)C)C[C@@H]3C2=O)c1	-11.4%
Cc1cc(C(=O)N2C[C@@H]3[C@@H](C2)OCC(=O)N3CC2CC2)no1	-13.6%
O=C(c1cccs1)N1C[C@H]2CC[C@@]3(N=C(c4ccccc4)NC3=O)[C@H]2C1	-4.38%
CN(C)[C@@H]1CCN(c2ncccn2)[C@H]1Cc1ccccc1	-6.06%
CC(=O)N1[C@H](Cn2cncn2)C[C@@H]2CN(c3ccc(C)nn3)CC[C@@H]21	-6.42%
COCC1CN(C(=O)c2cccn2C)Cc2ncnn2C1 (stereo not drawn)	-3.03%
Cc1ccc(CN2CC[C@H]3C[C@@H](c4nc(C5CC5)cs4)O[C@@H]3C2)o1	-7.46%
Cc1ccc(N2CC3(CCN(C(=O)c4ccoc4)C3)C2)nn1	-12.3%
Cc1nc([C@@H]2C[C@@H]3CCN(C(=O)c4occc4C)C[C@H]3O2)no1	23.8%
CCc1ncnc2c1CCN(C(=O)N1CCCC1)CC2	20.9%
CC(C)NC(=O)N1CCC2(CC(C(=O)NCc3cccnc3)=NO2)C1 (stereo not drawn)	-11.9%
COCCO[C@@H]1C[C@H]2CN(C(=O)c3ccc(C)nc3)CCN2C1	-9.86%
O=C(NCC1CC1)C1=NOC2(CCN(Cc3ccc4c(c3)OCO4)C2)C1 (stereo not drawn)	-5.94%
COCCO[C@@H]1C[C@H]2CN(C(=O)c3cnccn3)CCN2C1	-6.2%
CN1C(=O)C(c2cccnc2)CC12CCN(C(=O)c1cccn1C)CC2 (stereo not drawn)	-10.3%

Structure (SMILES)	cytotoxicity at 70.5 h
Cc1cc(C(=O)N2C[C@@H]3COC[C@]3(c3nnc(C4CC4)o3)C2)on1	-19%
O=C(NCC1CC1)C1CN(C(=O)c2cccs2)CC12CCOCC2 (stereo not drawn)	-13.2%
c1cnc(NCc2noc3c2CN(C2CCOCC2)CC3)nc1	-10.6%
CN(C)S(=O)(=O)N1CCC2(COCc3cnc(-c4ccccc4)nc32)C1 (stereo not drawn)	-23.1%
COc1cccc(C(=O)N2CCc3ncnc(C)c3CC2)c1	-5.4%
Cn1cc(CN2CC3(CCN(C(=O)c4ccoc4)C3)C2)cn1	-6.02%
Cc1ccc(N2CC3(CCN(c4nccs4)C3)C2)nn1	-4.92%
Cc1nn(C)cc1-c1cc(C(=O)N2CCc3ncc(Cl)cc3C2)no1	0.792%
Cc1nn(C)cc1-c1cc(C(=O)N2CCc3ncc(Cl)cc3C2)on1	-2.35%
Cc1c(-c2cc(C(=O)N3CCc4ncc(Cl)cc4C3)on2)cnn1C	35%
Cn1nccc1C(=O)N1CCC(c2ncc(Cl)cc2S(C)(=O)=O)CC1	18.3%
COCCC(=O)N1CCC2(CC1)CN(C(C)=O)Cc1ccccc1O2	0.622%
COCCC(=O)N1Cc2ccccc2OC2(CCOCC2)C1	-0.482%
Cc1ncc(-c2ccncc2)c(C2CCN(C(=O)c3ccco3)CC2)n1	-2.42%
Nc1ncc(CN2CCC(O)(c3ccccc3F)CC2)cn1	-2.71%
COCC(=O)N1CCC2(CC1)CN(S(C)(=O)=O)Cc1ccccc1O2	-0.505%
Cc1cc(C(F)(F)F)n2nc(C3CCN(S(C)(=O)=O)CC3)cc2n1	-7.35%
Cc1cc(C(F)(F)F)n2nc(C3CCN(S(=O)(=O)N(C)C)CC3)cc2n1	-0.288%
Cn1ncc2c1CCCN(C(=O)C1CC1)C2	14.3%
Cc1nn(C)cc1CN1CCCC(n2c(=O)oc3ccc(Cl)cc32)C1 (stereo not drawn)	46.8%
CCCNS(=O)(=O)c1cc2c3c(c1)c(C)cc(=O)n3CCC2	-0.859%
CCCc1cc(C(=O)NC(C)c2ccccc2)n(C)n1 (stereo not drawn)	-2.33%

Structure (SMILES)	cytotoxicity at 70.5 h
Cc1ccnn1CCNC(=O)c1cnc(N(C)C)nc1	-4.92%
Cc1nc2c(c(NCCCN3CCOCC3)n1)CCN(C)C2	15.4%
Cc1nc2c(c(NCCN3CCOCC3)n1)CCN(C)C2	32.4%
CNc1cc(C)nc(C2COCCN2CCOc2ccc(F)cc2)n1 (stereo not drawn)	-3.24%
CNc1cc(C)nc(C2COCCN2CCc2ccccc2)n1 (stereo not drawn)	-1.48%
CCCn1nc(C)c(C(=O)N(C)[C@@H]2CC[C@@H](OC)[C@@H]2O)c1C	-3.89%
CC(C)(C)c1ccc(CN2C[C@H]3C[C@H](O)C[C@H]3C2)c(OCC(N)=O)c1	-2.7%
CNC(=O)C1(CCCc2cnccn2)CCN1Cc1ccc(C)cc1 (stereo not drawn)	-5.64%
CC(=O)N1CCN(c2cc(C)ncn2)CC(CO)C1 (stereo not drawn)	-3.4%
CC(=O)N1CCC1c1cc(N2CCSCC2)nc(C)n1 (stereo not drawn)	-1.98%
COc1ccc2c(c1)C(=O)NC1(CC2)CCN(Cc2cccnc2)C1 (stereo not drawn)	-2.38%
CC(=O)N1CCC(c2n[nH]cc2-c2ccnc(N)c2)C1 (stereo not drawn)	15.7%
O=C(c1cnccn1)N1CCCC(Cc2ccccn2)C1 (stereo not drawn)	4.02%
Cc1c[nH]c(C2COCCN2C(=O)c2n[nH]c(=O)c3ccccc23)n1 (stereo not drawn)	-13.4%
CCCC(=O)N1CCCC1(C)c1nc(C)no1 (stereo not drawn)	-14.9%
COc1ccc(CNC(Cc2ccsc2)c2ncccc2C)cc1OC (stereo not drawn)	-4.5%
O=c1c(CN2CC3CCCN3C[C@@H]2CCO)coc2ccc(Cl)cc12 (stereo partly drawn)	-6.6%
CC(=O)N1CCN(c2cnccn2)CC(CO)C1 (stereo not drawn)	-5.92%
CC(C)N1CCCC1c1cc(CCO)[nH]n1 (stereo not drawn)	-9.45%
c1ccc2ncc(CC3CCNCC3)cc2c1	13.4%
COc1ccc(OCCc2cc(C3CNCCO3)nn2C)cc1 (stereo not drawn)	12.2%
CCCc1nnsc1C(=O)N1CCCC1(C)C(=O)N1CCOCC1 (stereo not drawn)	-9.09%

Structure (SMILES)	cytotoxicity at 70.5 h
CN1CCCC1c1cncc(C(=O)NCCN2CCCC2)n1 (stereo not drawn)	-14.2%
CNc1ncc(C(=O)N2CCOC(C(=O)NC3CCCC3)C2)cn1 (stereo not drawn)	-9.73%
COCCC(=O)N1C[C@@H](c2cccc(OC)c2)[C@@]2(CCCCC(=O)N2)C1	-14.8%
Cc1cc(N2CCN(Cc3cn(C)nc3C)CC2)cc(C2CCCN2)n1 (stereo not drawn)	-1.66%
Cc1nc(Nc2nncs2)cc(C2CCCN2)n1 (stereo not drawn)	-4.59%
OC1CCN(c2cncc(CCC3CCCN3)n2)CC1 (stereo not drawn)	-4.54%
COc1cccc2c(C)c(C(=O)N3CCNCC3C(N)=O)[nH]c12 (stereo not drawn)	-7.8%
FC(F)(F)c1ccc(-c2cnc(C3CCCN3)cn2)cc1 (stereo not drawn)	13.6%
Cn1cnc2c(N3CCCC3)nc(C3CCNCC3)cc21	-17%
COc1ccc(C[C@H]2CN(c3cc(OC)ncn3)CC[C@@H]2OC)cc1	4.78%
O=C(NCC1CC1)[C@@H]1CCO[C@@H]2CCN(c3ncccn3)C[C@@H]21	-3.18%
CC(=O)N1CC(=O)N(c2ccccc2)CC12CCN(Cc1nccs1)C2 (stereo not drawn)	-3.72%
CC(C)NC(=O)[C@H]1C[C@@H]2[C@@H](C1)OCCN2Cc1cnn(C)c1	-4.89%
Cn1cc(CN2CCn3c(CNC(=O)c4cccn4C)cnc3C2)cn1	4.31%
O=C(N[C@@H]1CN(Cc2ccccc2)C[C@@H]2CCCO[C@@H]21)C1CC1	-1.76%
Cc1occc1C(=O)N1CCC[C@]2(C[C@@H](OCc3ccncc3)CO2)C1	6.49%
Cc1ccc(CN2CCC[C@]3(C(=O)O)CN(c4ncccn4)C[C@@H]3C2)o1	0.612%
COc1ccc(C[C@H]2CN(c3nnc(C)s3)CC[C@@H]2OC)cc1	-0.42%
Cc1ccc(C(=O)N2CCC3(CC2)CC(c2ccccc2)C(=O)N3)cn1 (stereo not drawn)	0.473%
Cc1occc1C(=O)N1CCC2(CCN(Cc3nccs3)C2)CC1	-11%
CS(=O)(=O)N1CC[C@H]2O[C@H](C(=O)NCCc3ccncc3)CC[C@H]21	14.6%
O=C(NC1CC1)N1CCc2ncnc(-c3ccncc3)c2CC1	18.5%

Structure (SMILES)	cytotoxicity at 70.5 h
Cn1cc(CN2CC[C@H]3O[C@H](C(=O)NCc4ccco4)CC[C@H]32)cn1	-12.4%
Cc1ccc(CN2CC(C(=O)N3CCCC3)C3(CCOCC3)C2)s1 (stereo not drawn)	-9.91%
O=C(Nc1ccccc1)C1CN(CC2CC2)CC12CCOCC2 (stereo not drawn)	-17.6%
O=C(c1cnccn1)N1CCc2ncnc(-c3cccnc3)c2CC1	-16.1%
COCC(=O)N1CCCn2c(CN3CCCCC3)nnc2C1	-7.69%
CCOCC1CN(Cc2cccc(C#N)c2)Cc2nccn2C1 (stereo not drawn)	-1.89%
CS(=O)(=O)NCc1cnc2n1CCN(Cc1ccsc1)CC2	8.08%
O=C(O)[C@]12CCCN(Cc3ccncc3)C[C@H]1CN(c1ncccn1)C2	2.52%
c1ccc(CN2CCc3ncnc(C4CCOC4)c3CC2)nc1 (stereo not drawn)	-2.85%
Cc1cccc(CN2C[C@H](NS(C)(=O)=O)[C@@H]3OCCC[C@@H]32)n1	4.73%
c1coc(CN2CCCC3(COCCN(Cc4c[nH]nn4)C3)C2)c1 (stereo not drawn)	-2.53%
CC(C)COCc1cncc2c1CCN(Cc1cnn(C)c1)C2	-13.8%
c1cncc(COCc2nnc3n2CCN(Cc2ccoc2)C3)c1	-9.66%
CN(Cc1ccco1)C[C@H]1OC[C@@H]2CCN(Cc3cccs3)C[C@@H]21	-13.4%
O=C(c1cccnc1)N1CC[C@H](OCC2CC2)[C@@H]1Cc1cccnc1	-5.08%
CC(C)Nc1nc2c(cc1C(=O)N(C)C)CCNCC2	-6.7%
CC(C)N(C)Cc1cn2c(n1)CN(Cc1ccsc1)CC2	10.4%
CN(Cc1ccco1)C[C@H]1OC[C@@H]2CCN(Cc3cccnc3)C[C@@H]21	-7.43%
CCc1cc(C(F)(F)F)n2nc(C3CCCN3C3CCSCC3)cc2n1 (stereo not drawn)	-2.16%
CCN(CC)CCCNc1nc(C)nc2c1CCN(C)C2	-1.66%
